Measured values from ChEMBL document CHEMBL3885861, “Open TG-GATES”.

Organism: Rattus norvegicus
Experiment: Open TG-GATES - Regimen: Daily Repeat
Assay type: toxicity, organism-based, Sprague-Dawley
Parameters: regimen Daily Repeat, gender Male, age 6 weeks
Details: in vivo, po, 10 mg/kg, route gavage, dose level Low; for APTT / Bas / Eos / Fbg / Hb / Ht / Lym / MCHC / MCV / Mono / Neu / PT / Plat / RBC / Ret / WBC: tissue Blood; for KIDNEY_L / KIDNEY_R / KIDNEY_TOTAL: tissue Kidney; for LIVER: tissue Liver; for ALP / ALT / AST / BUN / CRE / Ca / Cl / DBIL / GLC / IP / K / LDH / Na / PL / RALB / TBIL / TC / TG / TP / gamma-GTP: tissue Plasma

SMILES: CS(=O)(=O)Nc1ccc([N+](=O)[O-])cc1Oc1ccccc1 [NIMESULIDE]
- TERMINAL_BW (72 h, time 3 day): 219.5 g
- APTT (72 h, time 3 day): 16.3 s
- Bas (72 h, time 3 day): 0%
- Eos (72 h, time 3 day): 1.2%
- Fbg (72 h, time 3 day): 208.8 mg/dL
- Hb (72 h, time 3 day): 14 g/dL
- Ht (72 h, time 3 day): 41.3%
- Lym (72 h, time 3 day): 74.8%
- MCHC (72 h, time 3 day): 33.9%
- MCV (72 h, time 3 day): 63.4 fL
- Mono (72 h, time 3 day): 6.8%
- Neu (72 h, time 3 day): 17%
- PT (72 h, time 3 day): 11.4 s
- Plat (72 h, time 3 day): 114.4 x10_4/uL
- RBC (72 h, time 3 day): 651.8 x10_4/ul
- Ret (72 h, time 3 day): 10%
- WBC (72 h, time 3 day): 94 x10_2/uL
- KIDNEY_L (72 h, time 3 day): 1 g
- KIDNEY_R (72 h, time 3 day): 1 g
- KIDNEY_TOTAL (72 h, time 3 day): 1.9 g
- LIVER (72 h, time 3 day): 10.2 g
- ALP (72 h, time 3 day): 1001.2 IU/L
- ALT (72 h, time 3 day): 38.2 IU/L
- AST (72 h, time 3 day): 62.8 IU/L
- BUN (72 h, time 3 day): 18.8 mg/dL
- CRE (72 h, time 3 day): 0.6 mg/dL
- Ca (72 h, time 3 day): 10.8 mg/dL
- Cl (72 h, time 3 day): 103.6 meq/L
- DBIL (72 h, time 3 day): 0.056 mg/dL
- GLC (72 h, time 3 day): 195 mg/dL
- IP (72 h, time 3 day): 7.7 mg/dL
- K (72 h, time 3 day): 4.9 meq/L
- LDH (72 h, time 3 day): 105.6 IU/L
- Na (72 h, time 3 day): 139.4 meq/L
- PL (72 h, time 3 day): 145 mg/dL
- RALB (72 h, time 3 day): 4 g/dL
- TBIL (72 h, time 3 day): 0.3 mg/dL
- TC (72 h, time 3 day): 80 mg/dL
- TG (72 h, time 3 day): 75.8 mg/dL
- TP (72 h, time 3 day): 5.5 g/dL
- gamma-GTP (72 h, time 3 day): 1.2 IU/L
- TERMINAL_BW ([…], time 7 day): 242.4 g
- TERMINAL_BW ([…], time 14 day): 296.6 g
- TERMINAL_BW ([…], time 28 day): 395.2 g
- APTT ([…], time 7 day): 17.2 s
- Bas ([…], time 7 day): 0%
- Eos ([…], time 7 day): 1%
- Fbg ([…], time 7 day): 220.8 mg/dL
- Hb ([…], time 7 day): 14.3 g/dL
- Ht ([…], time 7 day): 41.8%
- Lym ([…], time 7 day): 75.2%
- MCHC ([…], time 7 day): 34.2%
- MCV ([…], time 7 day): 61.7 fL
- Mono ([…], time 7 day): 8.2%
- Neu ([…], time 7 day): 15.4%
- PT ([…], time 7 day): 11.2 s
- Plat ([…], time 7 day): 129.4 x10_4/uL
- RBC ([…], time 7 day): 678.4 x10_4/ul
- Ret ([…], time 7 day): 4.9%
- WBC ([…], time 7 day): 103.5 x10_2/uL
- APTT ([…], time 14 day): 17.9 s
- Bas ([…], time 14 day): 0%
- Eos ([…], time 14 day): 1%
- Fbg ([…], time 14 day): 227.8 mg/dL
- Hb ([…], time 14 day): 14.5 g/dL
- Ht ([…], time 14 day): 42.4%
- Lym ([…], time 14 day): 83.8%
- MCHC ([…], time 14 day): 34.3%
- MCV ([…], time 14 day): 62.7 fL
- Mono ([…], time 14 day): 4.8%
- Neu ([…], time 14 day): 10.8%
- PT ([…], time 14 day): 11.8 s
- Plat ([…], time 14 day): 117.1 x10_4/uL
- RBC ([…], time 14 day): 676.2 x10_4/ul
- Ret ([…], time 14 day): 5.6%
- WBC ([…], time 14 day): 121.2 x10_2/uL
- APTT ([…], time 28 day): 18.6 s
- Bas ([…], time 28 day): 0%
- Eos ([…], time 28 day): 1%
- Fbg ([…], time 28 day): 214.2 mg/dL
- Hb ([…], time 28 day): 15.2 g/dL
- Ht ([…], time 28 day): 45%
- Lym ([…], time 28 day): 80.8%
- MCHC ([…], time 28 day): 33.9%
- MCV ([…], time 28 day): 57.7 fL
- Mono ([…], time 28 day): 6.4%
- Neu ([…], time 28 day): 11.6%
- PT ([…], time 28 day): 11.9 s
- Plat ([…], time 28 day): 117.6 x10_4/uL
- RBC ([…], time 28 day): 782.6 x10_4/ul
- Ret ([…], time 28 day): 2.8%
- WBC ([…], time 28 day): 102.3 x10_2/uL
- KIDNEY_L ([…], time 7 day): 1.1 g
- KIDNEY_R ([…], time 7 day): 1.1 g
- KIDNEY_TOTAL ([…], time 7 day): 2.2 g
- KIDNEY_L ([…], time 14 day): 1.2 g
- KIDNEY_R ([…], time 14 day): 1.2 g
- KIDNEY_TOTAL ([…], time 14 day): 2.4 g
- KIDNEY_L ([…], time 28 day): 1.4 g
- KIDNEY_R ([…], time 28 day): 1.4 g
- KIDNEY_TOTAL ([…], time 28 day): 2.8 g
- LIVER ([…], time 7 day): 11.6 g
- LIVER ([…], time 14 day): 14.2 g
- LIVER ([…], time 28 day): 16.7 g
- ALP ([…], time 7 day): 890.6 IU/L
- ALT ([…], time 7 day): 36.6 IU/L
- AST ([…], time 7 day): 64.4 IU/L
- BUN ([…], time 7 day): 20 mg/dL
- CRE ([…], time 7 day): 0.5 mg/dL
- Ca ([…], time 7 day): 10.5 mg/dL
- Cl ([…], time 7 day): 105.4 meq/L
- DBIL ([…], time 7 day): 0.016 mg/dL
- GLC ([…], time 7 day): 200.8 mg/dL
- IP ([…], time 7 day): 7.6 mg/dL
- K ([…], time 7 day): 4.6 meq/L
- LDH ([…], time 7 day): 97 IU/L
- Na ([…], time 7 day): 140.4 meq/L
- PL ([…], time 7 day): 159.6 mg/dL
- RALB ([…], time 7 day): 4.1 g/dL
- TBIL ([…], time 7 day): 0.3 mg/dL
- TC ([…], time 7 day): 81.4 mg/dL
- TG ([…], time 7 day): 97.8 mg/dL
- TP ([…], time 7 day): 5.9 g/dL
- gamma-GTP ([…], time 7 day): 1.4 IU/L
- ALP ([…], time 14 day): 649.2 IU/L
- ALT ([…], time 14 day): 30.6 IU/L
- AST ([…], time 14 day): 63.6 IU/L
- BUN ([…], time 14 day): 21 mg/dL
- CRE ([…], time 14 day): 0.6 mg/dL
- Ca ([…], time 14 day): 10.6 mg/dL
- Cl ([…], time 14 day): 106.4 meq/L
- DBIL ([…], time 14 day): 0 mg/dL
- GLC ([…], time 14 day): 201.8 mg/dL
- IP ([…], time 14 day): 7.1 mg/dL
- K ([…], time 14 day): 4.6 meq/L
- LDH ([…], time 14 day): 88.6 IU/L
- Na ([…], time 14 day): 141 meq/L
- PL ([…], time 14 day): 161 mg/dL
- RALB ([…], time 14 day): 3.9 g/dL
- TBIL ([…], time 14 day): 0.3 mg/dL
- TC ([…], time 14 day): 78 mg/dL
- TG ([…], time 14 day): 147.6 mg/dL
- TP ([…], time 14 day): 5.9 g/dL
- gamma-GTP ([…], time 14 day): 1.8 IU/L
- ALP ([…], time 28 day): 745.8 IU/L
- ALT ([…], time 28 day): 34.6 IU/L
- AST ([…], time 28 day): 65.2 IU/L
- BUN ([…], time 28 day): 20 mg/dL
- CRE ([…], time 28 day): 0.6 mg/dL
- Ca ([…], time 28 day): 10.6 mg/dL
- Cl ([…], time 28 day): 108.4 meq/L
- DBIL ([…], time 28 day): 0.004 mg/dL
- GLC ([…], time 28 day): 197 mg/dL
- IP ([…], time 28 day): 6.8 mg/dL
- K ([…], time 28 day): 4.6 meq/L
- LDH ([…], time 28 day): 95.2 IU/L
- Na ([…], time 28 day): 144.2 meq/L
- PL ([…], time 28 day): 147.2 mg/dL
- RALB ([…], time 28 day): 4.1 g/dL
- TBIL ([…], time 28 day): 0.3 mg/dL
- TC ([…], time 28 day): 65.8 mg/dL
- TG ([…], time 28 day): 167 mg/dL
- TP ([…], time 28 day): 6.2 g/dL
- gamma-GTP ([…], time 28 day): 1.8 IU/L
